pIC50: −log10 of the molar value. Like-named read-outs stand apart in the source and are kept apart here.
Target: hTRPV3 (Homo sapiens (Human), UniProt Q8NET8)
Assay: Whole-cell patch clamp, hTRPV3 Phase 1 / Phase 2 currents
Assay type: cell-based
Conditions: for pIC50: inward, whole-cell patch clamp
Excerpt: Whole-cell patch clamp experiments permit the detection of currents through the TRPV3 channel in the cell line described above. A glass electrode is brought into contact with a single cell and the membrane is then ruptured, permitting control of the voltage of the cell membrane and measurement of currents flowing across the membrane using the amplifier attached to the electrode. A perfusion system permits control of the extracellular solution, including the addition of blockers and activators of the current. The current can be activated by heating this solution to 28° C. or warmer or by addition of 20 μM 2-APB to the solution.
TRPV3 cells were induced 20-48 hours, removed from growth plates, and replated at low density (to attain good single-cell physical separation) on glass coverslips for measurement. In some cases, cells were grown in low density overnight on glass coverslips. Patch clamp recordings were made in the whole-cell mode with a holding potential of −40 mV. Every 5 seconds, a voltage ramp was applied from −120 to +100 mV, 400 ms in duration. Currents elicited were quantified at −80 mV and +80 mV. […] External solution was Ringer's solution described above.
P1 refers to the Phase 1 current for human (h) TRPV3, and P2 refers to the Phase 2 current for human (h) TRPV3.
In Tables 3 and 4, Phase 1 refers to Phase 1 current for human (h) TRPV3 or rat (r) TRPV3, and Phase 2 refers to Phase 2 current for human (h) TRPV3 or rat (r) TRPV3. The hTRPV3 and rTRPV3 assays were performed as described herein. hERG refers to the inhibition the human ERG (hERG) channel. NaV1.5, refers to the pore forming aL-subunit of the voltage-dependent cardiac Na(+) channel and is an integral membrane protein involved in the initiation and conduction of action potentials. hTRPV3 HAMA IC50 refers to the IC50 of TRPV3 cells stably expressed in TRex-293 cells. Solubility Ringer refers to the compounds' solubility in Ringer's solution. LM T1/2 refers to liver microsome half-lives in either rat or human liver microsomes. FLIPR IC50 refers to the IC50 of the test compounds against recombinant hTRPV3 cells.

[1] = Phase 1 current, read-out: hTRPV3 Patch P1 Inwd
[2] = Phase 1 current, read-out: hTRPV3 (nM) (Phase 1)
[3] = Phase 1 current, human TRPV3, read-out: hTRPV3 (nM) Phase 1
[4] = Phase 2 current, read-out: hTRPV3 Patch P2 Inwd
[5] = Phase 2 current, read-out: hTRPV3 (nM) (Phase 2)

Chain of hTRPV3 (Q8NET8 whole entry): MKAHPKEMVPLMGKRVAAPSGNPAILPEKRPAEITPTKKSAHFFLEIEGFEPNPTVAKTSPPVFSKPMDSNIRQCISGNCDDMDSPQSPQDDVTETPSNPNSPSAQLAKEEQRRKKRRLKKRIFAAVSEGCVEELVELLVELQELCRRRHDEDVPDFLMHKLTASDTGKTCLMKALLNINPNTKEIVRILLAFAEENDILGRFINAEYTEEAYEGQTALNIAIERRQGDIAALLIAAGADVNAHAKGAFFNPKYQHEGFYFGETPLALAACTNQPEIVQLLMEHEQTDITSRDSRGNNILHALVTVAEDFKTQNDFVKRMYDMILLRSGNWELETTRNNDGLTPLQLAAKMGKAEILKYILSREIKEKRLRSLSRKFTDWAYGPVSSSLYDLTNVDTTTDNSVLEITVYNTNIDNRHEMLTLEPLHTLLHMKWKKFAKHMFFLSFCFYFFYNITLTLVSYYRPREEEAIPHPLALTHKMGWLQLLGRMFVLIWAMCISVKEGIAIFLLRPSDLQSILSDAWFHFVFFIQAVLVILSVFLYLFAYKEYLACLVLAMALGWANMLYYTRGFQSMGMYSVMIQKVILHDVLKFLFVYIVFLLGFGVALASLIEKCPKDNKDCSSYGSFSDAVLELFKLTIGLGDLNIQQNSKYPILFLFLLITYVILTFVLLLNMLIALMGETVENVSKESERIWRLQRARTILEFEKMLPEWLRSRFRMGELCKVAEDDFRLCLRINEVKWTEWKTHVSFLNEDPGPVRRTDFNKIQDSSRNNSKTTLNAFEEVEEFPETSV

Row | Compound | pIC50 [1] | IC50 [2] [nM] | pIC50 [4] | IC50 [5] [nM] | also measured
1 | NCc1ccc(N2CC[C@@H](Oc3ccc(C(F)(F)F)cn3)C2)c(C(N)=O)c1 [Compound 1-45] | < 6.00 | – | – | – | –
2 | O=C(c1ccc(Cl)cc1)c1ccc(N2CC[C@H](Nc3ccc(F)cn3)C2)c(CCO)c1 [Compound 1-388, (S)-(4-chlorophenyl)(4-(3-(5-fluoropyridin-2-ylamino)pyrrolidin-1-yl)-3-(2-hydroxyethyl)phenyl)methanone] | < 6.00 | > 3200 | – | – | –
3 | FC(F)(F)c1ccc(O[C@@H]2CCN(c3ccccc3OCc3ccccc3)C2)nc1 [Compound 1-38, (R)-2-(1-(2-(benzyloxy)phenyl)pyrrolidin-3-yloxy)-5-(trifluoromethyl)pyridine] | < 6.00 | – | – | – | –
4 | Cc1ccccc1-c1ccc(N2CC[C@H](Oc3ccc(F)cn3)C2)c(CO)n1 [Compound 1-207, (S)-(3-(3-(5-fluoropyridin-2-yloxy)pyrrolidin-1-yl)-6-o-tolylpyridin-2-yl)methanol] | 6.00 to 7.00 | 283 | – | – | –
5 | COc1ccc(C(=O)N2CCC(c3ccc(-c4ccccc4C4CC4)cc3CO)C2)nc1 (stereo not drawn) [Compound 2-76, (3-(2′-cyclopropyl-3-(hydroxymethyl)biphenyl-4-yl)pyrrolidin-1-yl)(5-methoxypyridin-2-yl)methanone] | 7.00 to 8.00 | – | – | – | IC50 [3]: 71 nM
6 | N#Cc1cc(-c2ccccc2)ccc1N1CCC(Oc2ccc3ccccc3n2)C1=O (stereo not drawn) [Compound 1-108, 4-(2-oxo-3-(quinolin-2-yloxy)pyrrolidin-1-yl)biphenyl-3-carbonitrile] | – | – | < 6.00 | > 3200 | –
7 | CC(C)c1ccccc1Oc1ccc(N2CC[C@H](Oc3ccc(C#N)cn3)C2)c(CO)c1 [Compound 1-353] | 7.00 to 8.00 | 26.8 | – | – | –
8 | OCc1cc(Oc2ccc(Cl)c(C(F)(F)F)c2)ccc1N1CC[C@H](Oc2ccccn2)C1 [Compound 1-303] | 7.00 to 8.00 | 56.3 | – | – | –
9 | NC(=O)c1cc(-c2ccccc2)ccc1N1CC[C@H](Nc2ncccc2Cl)C1 [Compound 1-373, (S)-4-(3-(3-chloropyridin-2-ylamino)pyrrolidin-1-yl)biphenyl-3-carboxamide] | – | – | 6.00 to 7.00 | 669 | –
10 | CC(C)c1ccccc1Oc1ccc(C2CCN(Cc3ccc(Cl)cn3)C2)c(CO)c1 (stereo not drawn) [Compound 2-91, (2-(1-((5-chloropyridin-2-yl)methyl)pyrrolidin-3-yl)-5-(2-isopropylphenoxy)phenyl)methanol] | 6.00 to 7.00 | – | – | – | IC50 [3]: 325 nM
11 | COCc1ccc(C(O)c2ccc(N3CC[C@H](Oc4ncccc4Cl)C3)c(CO)c2)cc1 (stereo partly drawn) [Compound 1-290, (4-((S)-3-(3-chloropyridin-2-yloxy)pyrrolidin-1-yl)-3-(hydroxymethyl)phenyl)(4-(methoxymethyl)phenyl)methanol] | < 6.00 | > 3200 | < 6.00 | > 3200 | –
12 | OCCCc1cc(-c2ccccc2)ccc1N1CC[C@H](Oc2ncccc2C(F)(F)F)C1 [Compound 1-170, (S)-3-(4-(3-(3-(trifluoromethyl)pyridin-2-yloxy)pyrrolidin-1-yl)biphenyl-3-yl)propan-1-ol] | – | – | 6.00 to 7.00 | 551 | –
13 | O=C(c1ccc(F)cc1)c1ccc(N2CC[C@H](Oc3ncccc3Cl)C2)c(CCO)c1 [Compound 1-294, (S)-(4-(3-(3-chloropyridin-2-yloxy)pyrrolidin-1-yl)-3-(2-hydroxyethyl)phenyl)(4-fluorophenyl)methanone] | 6.00 to 7.00 | 511 | 6.00 to 7.00 | 502 | –
14 | Cc1cnc(C(=O)N2CCC(c3ccc(-c4ccccc4C4CC4)cc3CO)C2)cn1 (stereo not drawn) [Compound 2-106, (3-(2′-cyclopropyl-3-(hydroxymethyl)biphenyl-4-yl)pyrrolidin-1-yl)(5-methylpyrazin-2-yl)methanone] | 7.00 to 8.00 | – | – | – | IC50 [3]: 67 nM
15 | CCc1cccnc1Oc1ccc(C2CCN(C(=O)c3ccc(F)cn3)C2)c(CO)c1 (stereo not drawn) [Compound 2-44, (3-(4-(3-ethylpyridin-2-yloxy)-2-(hydroxymethyl)phenyl)pyrrolidin-1-yl)(5-fluoropyridin-2-yl)methanone] | < 6.00 | – | – | – | IC50 [3]: > 3200 nM
16 | Cc1ccc(O[C@H]2CCN(c3ccc(-c4ccccc4C)nc3CCO)C2)nc1 [Compound 1-200, (S)-2-(3-(3-(5-methylpyridin-2-yloxy)pyrrolidin-1-yl)-6-o-tolylpyridin-2-yl)ethanol] | 6.00 to 7.00 | 709 | – | – | –

Row | Compound | pIC50 [1] | IC50 [2] [nM] | pIC50 [4] | IC50 [5] [nM] | also measured
17 | CC(C)Oc1cc(-c2ccccc2)ccc1N1CC[C@H](Oc2ccc(C(F)(F)F)cn2)C1 [Compound 1-77, (S)-2-(1-(3-isopropoxybiphenyl-4-yl)pyrrolidin-3-yloxy)-5-(trifluoromethyl)pyridine] | < 6.00 | > 3200 | < 6.00 | 1470 | –
18 | 5-(2-isopropylphenoxy)-2-(1-(pyrazine-2-carbonyl)pyrrolidin-3-yl)benzamide [Compound 2-103] | < 6.00 | – | – | – | IC50 [3]: ~5250 nM
19 | NC(=O)c1cc(Oc2ccccc2)ccc1N1CC[C@H](Oc2ccc(C(F)(F)F)cn2)C1 [Compound 1-124, (S)-5-phenoxy-2-(3-(5-(trifluoromethyl)pyridin-2-yloxy)pyrrolidin-1-yl)benzamide] | – | – | – | – | IC50 (hTRPV3 Patch P1 Inwd (nM)): 100 to 1000 nM; IC50 (read-out: hTRPV3 (nM) (Phase 1)): 729 nM
20 | CCc1ccccc1Oc1ccc(N2CC[C@H](Oc3ncccc3Cl)C2)c(C#N)c1 [Compound 1-308] | < 6.00 | > 3200 | – | – | –
21 | CCc1ccccc1-c1ccc(C2CCN(C(=O)C3CCN(C)CC3)C2)c(CO)c1 (stereo not drawn) [Compound 2-115] | – | – | – | – | IC50 [3]: > 3200 nM
22 | (3-(4-(4-chloro-3-ethylpyridin-2-yloxy)-2-(hydroxymethyl)phenyl)pyrrolidin-1-yl)(5-fluoropyridin-2-yl)methanone [Compound 2-43] | < 6.00 | – | – | – | IC50 [3]: > 3200 nM
23 | O=C(c1ccccc1N1CC[C@H](Oc2ccc(C(F)(F)F)cn2)C1)N(Cc1ccccc1)Cc1ccccc1 [Compound 1-52, (S)—N,N-dibenzyl-2-(3-(5-(trifluoromethyl)pyridin-2-yloxy)pyrrolidin-1-yl)benzamide] | < 6.00 | – | – | – | –
24 | NCc1cc(-c2ccccc2)ccc1N1CC[C@H](Oc2ccc(C(F)(F)F)cn2)C1 [Compound 1-119, (S)-(4-(3-(5-(trifluoromethyl)pyridin-2-yloxy)pyrrolidin-1-yl)biphenyl-3-yl)methanamine] | – | – | < 6.00 | > 3200 | –
25 | OCCc1cc(C(O)c2ccc(Cl)cc2)ccc1N1CC[C@H](Oc2ncccc2Cl)C1 (stereo partly drawn) [Compound 1-292, 2-(5-((4-chlorophenyl)(hydroxy)methyl)-2-((S)-3-(3-chloropyridin-2-yloxy)pyrrolidin-1-yl)phenyl)ethanol] | < 6.00 | ~4900 | < 6.00 | ~5100 | –
26 | (S)-(6-(2-ethylphenoxy)-3-(3-(5-(trifluoromethyl)pyridin-2-yloxy)pyrrolidin-1-yl)pyridin-2-yl)methanol [Compound 1-212] | < 6.00 | > 3200 | – | – | –
27 | O=C(O)c1cc(-c2ccccc2Cl)ccc1N1CC[C@H](Oc2ccc(C(F)(F)F)cn2)C1 [Compound 1-166, (S)-2′-chloro-4-(3-(5-(trifluoromethyl)pyridin-2-yloxy)pyrrolidin-1-yl)biphenyl-3-carboxylic acid] | < 6.00 | ~2210 | < 6.00 | ~2230 | –
28 | Cc1ccccc1-c1ccc(N2CC[C@H](Oc3ccc(Cl)cn3)C2)c(CO)n1 [Compound 1-195, (S)-(3-(3-(5-chloropyridin-2-yloxy)pyrrolidin-1-yl)-6-o-tolylpyridin-2-yl)methanol] | 6.00 to 7.00 | 106 | 7.00 to 8.00 | 71.3 | –
29 | Cc1cccc(CN2CC(c3ccc(Oc4ccccc4C(C)C)cc3C(N)=O)CC2=O)n1 (stereo not drawn) [Compound 2-97, 5-(2-isopropylphenoxy)-2-(1-((6-methylpyridin-2-yl)methyl)-5-oxopyrrolidin-3-yl)benzamide] | < 6.00 | – | – | – | IC50 [3]: > 3200 nM
30 | 2-(1-o-tolylpyrrolidin-3-yloxy)-5-(trifluoromethyl)pyridine [Compound 1-1] | < 6.00 | – | < 6.00 | – | –
31 | OCCc1cc(C(O)c2cccc(Cl)c2)ccc1N1CC[C@H](Oc2ncccc2Cl)C1 (stereo partly drawn) [Compound 1-329, 2-(5-((3-chlorophenyl)(hydroxy)methyl)-2-((S)-3-(3-chloropyridin-2-yloxy)pyrrolidin-1-yl)phenyl)ethanol] | < 6.00 | 3100 | – | – | –
32 | OCc1nc(-c2ccccc2)ccc1N1C[C@@H](O)[C@H](Oc2ccc(C(F)(F)F)cn2)C1 [Compound 1-323] | < 6.00 | 3610 | – | – | –

— patent US12435061B2 (priority 2020, dated 2025)
